These are literature values, as cited in patent US20190038750A1, “TRIPLE ANTIBIOTIC CATIONIC OINTMENT” (priority 2017, published 2019).

For data set [1], the system named is Escherichia coli.
The subject of data set [2] is vancomycin-resistant enterococci.
Data set [3] deals with Staphylococcus aureus (also the methicillin-resistant type, MRSA).
Data set [4] relates to Pseudomonas aeruginosa.
The subject of data set [5] is Aspergillus brasiliensis (mold).
Data set [6] relates to Candida albicans (yeast).
Data set [7] concerns Klebsiella pneumoniae (carbapenem-resistant enterobacteriaceae).
The conditions of data set [8]: in vivo.
Data set [9] concerns fungus.
Data set [10] deals with bacteria. The conditions noted are these: very low concentrations.

Consider polyhexamethylenebiguanide [PHMB], for which the “effective against Escherichia coli” value in data set [1] was “effective”. The “effective against vancomycin-resistant enterococci” value in data set [2] is recorded as “effective”. In addition, the “effective against Staphylococcus aureus (also MRSA)” value in data set [3] is given as “effective”. Besides, the “effective against Pseudomonas aeruginosa” value in data set [4] is given as “effective”. Also, the “effective against Aspergillus brasiliensis” value in data set [5] is “effective”. For the same substance, the “effective against Candida albicans” value in [6] is “effective”. For the same substance, the “effective against Klebsiella pneumoniae (carbapenem-resistant)” value in [7] is recorded as “effective”.

With benzalkonium chloride, the burning sensation entry in data set [8] is “does not cause a burning sensation”.

As for Polyaminopropylbiguanide [PAPB], the fungicidal result in data set [9] was “fungicidal”. Also, the bactericidal concentration in data set [10] is 10 mg/1.
